Assay results published in patent publication US20020065219A1, “Water soluble thiazolyl peptide derivatives” (priority 2000, published 2002).
Values after ≈ are worked out from the molar mass of the structure shown. Where two headings read alike, the source gives them in different places. Each block holds one compound with its values, some of them ahead of it.

Key:
Assay in all cases: MIC, broth micro dilution assay (NCCLS)
Type in all cases: cell-based
[1] = tested on: Streptococcus pneumoniae A28272
[2] = tested on: Staphylococcus aureus A15090
[3] = tested on: Enterococcus faecalis A20688
[4] = 50% Mueller-Hinton medium and 50% Todd Hewitt medium, 35° C., 18 hours
[5] = Mueller-Hinton medium, 35° C., 18 hours

Structure (SMILES): CN[C@@H]1[C@H](C)O[C@@H](OC2C(=O)OCc3cccc4c3c3c(n4O)C(=O)OCC4NC(=O)c5csc(n5)C(NC(=O)c5csc(n5)/C(=C(/C)OC)NC(=O)C(C(C)O)NC(=O)c5csc(n5)-c5cc(O)c(-c6nc(C(=O)NC(CN(C)CCO)C(N)=O)cs6)nc5-c5csc4n5)C2OC3)C[C@]1(C)O (stereo partly drawn) [Example 99]
MIC (μg/mL) against Streptococcus pneumoniae A28272 [1]: 0.015 µg/mL (≈ 0.01 µM)
MIC (μg/mL) against Staphylococcus aureus A15090 [2]: 0.03 µg/mL (≈ 0.02 µM)
MIC (μg/mL) against Enterococcus faecalis A20688 [3]: 0.125 µg/mL (≈ 0.0834 µM)

Structure (SMILES): COCCOCCOCCOCCN1CCN(CC(NC(=O)c2csc(-c3nc4c(cc3O)-c3nc(cs3)C(=O)NC(C(C)O)C(=O)N/C(=C(\C)OC)c3nc(cs3)C(=O)NC3c5nc(cs5)C(=O)NC(COC(=O)c5c6c7c(cccc7n5O)COC(=O)C(O[C@H]5C[C@](C)(O)[C@H](N(C)C)[C@H](C)O5)C3OC6)c3nc-4cs3)n2)C(N)=O)CC1 (stereo partly drawn) [Example 69]
MIC (μg/mL) against Streptococcus pneumoniae A28272 [1]: 0.25 µg/mL (≈ 0.146 µM)
MIC (μg/mL) against Staphylococcus aureus A15090 [2]: 0.5 µg/mL (≈ 0.292 µM)
MIC (μg/mL) against Enterococcus faecalis A20688 [3]: 4.0 µg/mL (≈ 2.33 µM)

Structure (SMILES): CO/C(C)=C1/NC(=O)C(C(C)O)NC(=O)c2csc(n2)-c2cc(O)c(-c3nc(C(=O)NC(CNCCCN4CCN(C)CC4)C(N)=O)cs3)nc2-c2csc(n2)C2COC(=O)c3c4c5c(cccc5n3O)COC(=O)C(O[C@H]3C[C@](C)(O)[C@H](N(C)C)[C@H](C)O3)C(OC4)C(NC(=O)c3csc1n3)c1nc(cs1)C(=O)N2 (stereo partly drawn) [Example 51]
MIC (μg/mL) against Streptococcus pneumoniae A28272 [1]: 0.015 µg/mL (≈ 0.00941 µM)
MIC (μg/mL) against Staphylococcus aureus A15090 [2]: 0.25 µg/mL (≈ 0.157 µM)
MIC (μg/mL) against Enterococcus faecalis A20688 [3]: 4.0 µg/mL (≈ 2.51 µM)

Structure (SMILES): CO/C(C)=C1/NC(=O)C(C(C)O)NC(=O)c2csc(n2)-c2cc(O)c(-c3nc(C(=O)NC(CSCCc4cnccn4)C(N)=O)cs3)nc2-c2csc(n2)C2COC(=O)c3c4c5c(cccc5n3O)COC(=O)C(O[C@H]3C[C@](C)(O)[C@H](N(C)C)[C@H](C)O3)C(OC4)C(NC(=O)c3csc1n3)c1nc(cs1)C(=O)N2 (stereo partly drawn) [Example 62]
MIC (μg/mL) against Streptococcus pneumoniae A28272 [1, 4]: 0.015 µg/mL (≈ 0.00951 µM)
MIC (μg/mL) against Staphylococcus aureus A15090 [2, 5]: 0.125 µg/mL (≈ 0.0792 µM)
MIC (μg/mL) against Enterococcus faecalis A20688 [3, 5]: 0.25 µg/mL (≈ 0.158 µM)

MIC (μg/mL) against Streptococcus pneumoniae A28272 [1, 4]: 0.005 µg/mL (≈ 0.00318 µM)
MIC (μg/mL) against Staphylococcus aureus A15090 [2, 5]: 0.125 µg/mL (≈ 0.0794 µM)
MIC (μg/mL) against Enterococcus faecalis A20688 [3, 5]: 0.25 µg/mL (≈ 0.159 µM)
Structure (SMILES): CO/C(C)=C1/NC(=O)C(C(C)O)NC(=O)c2csc(n2)-c2cc(O)c(-c3nc(C(=O)NC(CN(C)CCc4ccccn4)C(N)=O)cs3)nc2-c2csc(n2)C2COC(=O)c3c4c5c(cccc5n3O)COC(=O)C(O[C@H]3C[C@](C)(O)[C@H](N(C)C)[C@H](C)O3)C(OC4)C(NC(=O)c3csc1n3)c1nc(cs1)C(=O)N2 (stereo partly drawn) [Example 20]

Structure (SMILES): CO/C(C)=C1/NC(=O)C(C(C)O)NC(=O)c2csc(n2)-c2cc(O)c(-c3nc(C(=O)NC(CSCC(=O)O)C(N)=O)cs3)nc2-c2csc(n2)C2COC(=O)c3c4c5c(cccc5n3O)COC(=O)C(O[C@H]3C[C@](C)(O)[C@H](N(C)C)[C@H](C)O3)C(OC4)C(NC(=O)c3csc1n3)c1nc(cs1)C(=O)N2 (stereo partly drawn) [Example 4]
MIC ([1]; Streptococcus pneumoniae, A28272, 18 h, read-out: MIC (μg/mL) against Streptococcus pneumoniae A28272): 0.125 µg/mL (≈ 0.0817 µM)
MIC ([2]; Staphylococcus aureus, A15090, 18 h, read-out: MIC (μg/mL) against Staphylococcus aureus A15090): 2 µg/mL (≈ 1.31 µM)
MIC ([3]; Enterococcus faecalis, A20688, 18 h, read-out: MIC (μg/mL) against Enterococcus faecalis A20688): 2 µg/mL (≈ 1.31 µM)

Structure (SMILES): COC(C)=C1NC(=O)C(C(C)O)NC(=O)c2csc(n2)-c2cc(O)c(-c3nc(C(=O)NC(CN4CCCC4C(O)C4CCCCC4)C(N)=O)cs3)nc2-c2csc(n2)C2COC(=O)c3c4c5c(cccc5n3O)COC(=O)C(OC3CC(C)(O)C(N(C)C)C(C)O3)C(OC4)C(NC(=O)c3csc1n3)c1nc(cs1)C(=O)N2 (stereo not drawn) [Example 90]
MIC (μg/mL) against Streptococcus pneumoniae A28272 [1, 4]: 0.007 µg/mL (≈ 0.00432 µM)
MIC (μg/mL) against Staphylococcus aureus A15090 [2, 5]: 0.03 µg/mL (≈ 0.0185 µM)
MIC (μg/mL) against Enterococcus faecalis A20688 [3, 5]: 0.06 µg/mL (≈ 0.037 µM)

Structure (SMILES): CO/C(C)=C1/NC(=O)C(C(C)O)NC(=O)c2csc(n2)-c2cc(O)c(-c3nc(C(=O)NC(CNCCN(C)C)C(N)=O)cs3)nc2-c2csc(n2)C2COC(=O)c3c4c5c(cccc5n3O)COC(=O)C(O[C@H]3C[C@](C)(O)[C@H](N(C)C)[C@H](C)O3)C(OC4)C(NC(=O)c3csc1n3)c1nc(cs1)C(=O)N2 (stereo partly drawn) [Example 17]
MIC (μg/mL) against Streptococcus pneumoniae A28272 [1, 4]: 0.03 µg/mL (≈ 0.0197 µM)
MIC (μg/mL) against Staphylococcus aureus A15090 [2, 5]: 2.0 µg/mL (≈ 1.31 µM)
MIC (μg/mL) against Enterococcus faecalis A20688 [3, 5]: 4.0 µg/mL (≈ 2.62 µM)

Structure (SMILES): COC(C)=C1NC(=O)C(C(C)O)NC(=O)c2csc(n2)-c2cc(O)c(-c3nc(C(=O)NC(CN4CCN(c5cccnc5)CC4)C(N)=O)cs3)nc2-c2csc(n2)C2COC(=O)c3c4c5c(cccc5n3O)COC(=O)C(OC3CC(C)(O)C(N(C)C)C(C)O3)C(OC4)C(NC(=O)c3csc1n3)c1nc(cs1)C(=O)N2 (stereo not drawn) [Example 85]
MIC (μg/mL) against Streptococcus pneumoniae A28272 [1]: 0.007 µg/mL (≈ 0.00437 µM)
MIC (μg/mL) against Staphylococcus aureus A15090 [2]: 0.06 µg/mL (≈ 0.0375 µM)
MIC (μg/mL) against Enterococcus faecalis A20688 [3]: 0.25 µg/mL (≈ 0.156 µM)

Structure (SMILES): CNC(=O)N(C)CC(NC(=O)c1csc(-c2nc3c(cc2O)-c2nc(cs2)C(=O)NC(C(C)O)C(=O)N/C(=C(\C)OC)c2nc(cs2)C(=O)NC2c4nc(cs4)C(=O)NC(COC(=O)c4c5c6c(cccc6n4O)COC(=O)C(OC4CC(C)(O)C(N(C)C)C(C)O4)C2OC5)c2nc-3cs2)n1)C(N)=O (stereo not drawn) [Example 109]
MIC (μg/mL) against Streptococcus pneumoniae A28272 [1, 4]: 0.06 µg/mL (≈ 0.0393 µM)
MIC (μg/mL) against Staphylococcus aureus A15090 [2, 5]: 0.06 µg/mL (≈ 0.0393 µM)
MIC (μg/mL) against Enterococcus faecalis A20688 [3, 5]: 0.5 µg/mL (≈ 0.328 µM)

Structure (SMILES): CO/C(C)=C1/NC(=O)C(C(C)O)NC(=O)c2csc(n2)-c2cc(O)c(-c3nc(C(=O)NC(CN(C)Cc4ccccc4O[C@@H]4O[C@H](CO)[C@@H](O)[C@H](O)[C@H]4O)C(N)=O)cs3)nc2-c2csc(n2)C2COC(=O)c3c4c5c(cccc5n3O)COC(=O)C(O[C@H]3C[C@](C)(O)[C@H](N(C)C)[C@H](C)O3)C(OC4)C(NC(=O)c3csc1n3)c1nc(cs1)C(=O)N2 (stereo partly drawn) [Example 29]
MIC (μg/mL) against Streptococcus pneumoniae A28272 [1, 4]: 0.015 µg/mL (≈ 0.00864 µM)
MIC (μg/mL) against Staphylococcus aureus A15090 [2, 5]: 0.06 µg/mL (≈ 0.0345 µM)
MIC (μg/mL) against Enterococcus faecalis A20688 [3, 5]: 0.25 µg/mL (≈ 0.144 µM)

Structure (SMILES): COCCOCCOCCN1CCN(CC(NC(=O)c2csc(-c3nc4c(cc3O)-c3nc(cs3)C(=O)NC(C(C)O)C(=O)NC(=C(C)OC)c3nc(cs3)C(=O)NC3c5nc(cs5)C(=O)NC(COC(=O)c5c6c7c(cccc7n5O)COC(=O)C(OC5CC(C)(O)C(N(C)C)C(C)O5)C3OC6)c3nc-4cs3)n2)C(N)=O)CC1 (stereo not drawn) [Example 72]
MIC (μg/mL) against Streptococcus pneumoniae A28272 [1]: 0.5 µg/mL (≈ 0.299 µM)
MIC (μg/mL) against Staphylococcus aureus A15090 [2]: 4.0 µg/mL (≈ 2.4 µM)
MIC (μg/mL) against Enterococcus faecalis A20688 [3]: 4.0 µg/mL (≈ 2.4 µM)

Structure (SMILES): COC[C@@H]1CCCN1CC(NC(=O)c1csc(-c2nc3c(cc2O)-c2nc(cs2)C(=O)NC(C(C)O)C(=O)N/C(=C(\C)OC)c2nc(cs2)C(=O)NC2c4nc(cs4)C(=O)NC(COC(=O)c4c5c6c(cccc6n4O)COC(=O)C(O[C@H]4C[C@](C)(O)[C@H](N(C)C)[C@H](C)O4)C2OC5)c2nc-3cs2)n1)C(N)=O (stereo partly drawn) [Example 63]
MIC (μg/mL) against Streptococcus pneumoniae A28272 [1, 4]: 0.03 µg/mL (≈ 0.0193 µM)
MIC (μg/mL) against Staphylococcus aureus A15090 [2, 5]: 0.125 µg/mL (≈ 0.0805 µM)
MIC (μg/mL) against Enterococcus faecalis A20688 [3, 5]: 0.25 µg/mL (≈ 0.161 µM)

Structure (SMILES): CO/C(C)=C1/NC(=O)C(C(C)O)NC(=O)c2csc(n2)-c2cc(O)c(-c3nc(C(=O)NC(CN4CCN(CCOCCO)CC4)C(N)=O)cs3)nc2-c2csc(n2)C2COC(=O)c3c4c5c(cccc5n3O)COC(=O)C(O[C@H]3C[C@](C)(O)[C@H](N(C)C)[C@H](C)O3)C(OC4)C(NC(=O)c3csc1n3)c1nc(cs1)C(=O)N2 (stereo partly drawn) [Example 49]
MIC (μg/mL) against Streptococcus pneumoniae A28272 [1, 4]: 0.5 µg/mL (≈ 0.31 µM)
MIC (μg/mL) against Staphylococcus aureus A15090 [2, 5]: 0.5 µg/mL (≈ 0.31 µM)
MIC (μg/mL) against Enterococcus faecalis A20688 [3, 5]: 2.0 µg/mL (≈ 1.24 µM)

Structure (SMILES): COC(C)=C1NC(=O)C(C(C)O)NC(=O)c2csc(n2)-c2cc(O)c(-c3nc(C(=O)NC(CN4CCCC4C(C)O)C(N)=O)cs3)nc2-c2csc(n2)C2COC(=O)c3c4c5c(cccc5n3O)COC(=O)C(OC3CC(C)(O)C(N(C)C)C(C)O3)C(OC4)C(NC(=O)c3csc1n3)c1nc(cs1)C(=O)N2 (stereo not drawn) [Example 86]
MIC (μg/mL) against Streptococcus pneumoniae A28272 [1, 4]: 0.015 µg/mL (≈ 0.00966 µM)
MIC (μg/mL) against Staphylococcus aureus A15090 [2, 5]: 0.007 µg/mL (≈ 0.00451 µM)
MIC (μg/mL) against Enterococcus faecalis A20688 [3, 5]: 0.06 µg/mL (≈ 0.0386 µM)
